{
  "source": "patent US11590129B2",
  "about": "“Combination therapy with an antitumor alkaloid” (PHARMA MAR, S.A., priority 2010, dated 2023)",
  "system": "U87-MG tumors",
  "test": "Human brain tumor xenografts (U87-MG) in athymic nude mice, tumor volume % T/C",
  "format": "in vivo",
  "experimental": "Female athymic nude mice (Harlan Laboratories Models, S.L. (Barcelona, Spain) were utilized for all experiments. Animals were housed in individually ventilated cages, up to ten per cage in a 12-hour light-dark cycle at 21-23° C. and 40-60% humidity. The mice were allowed free access to irradiated standard rodent diet and sterilized water. Animals were acclimated for at least 5 days prior to tumor implantation with a tumor cell suspension.\nThe tumor model used in these studies was U87-MG cell line, which was obtained from the American Type Culture Collection (ATCC HTB-14™).\nU87-MG cells were grown at 37° C. with 5% CO2 in Minimum Essential Medium Eagle (MEME). Each animal was subcutaneously implanted on the right flank, using 26G needle and a 1 cc syringe, with 5×10^6 U87-MG cells, from in vitro passage 5, in 0.05 mL suspension of 50% Matrigel and 50% serum free medium, without antibiotics.\nPM01183 was provided in the form of vials of lyophilized PM01183 cake which was reconstituted with water for infusion to a concentration of 0.2 mg/mL. The PM01183 stock solution was further diluted in 5% glucose solution for injection to the dosing formulation concentrations. Temozolomide was provided as a solution prepared by diluting the product in DMSO 10% in 0.9% saline solution for injection to the target final concentration.\nIn these experiments, PM01183 and temozolomide treatments, as well as placebo, were administered as follows: PM01183, intravenously once per week up to 3 consecutive weeks, on Days 0, 7 and 14, temozolomide orally, in a daily basis during 8 consecutive days (Days 0 to 7), and placebo was administered following the same schedule as those provided for PM01183 and temozolomide. Dose level groups were administered either as single agents or in combination.\nComparison of the median tumor volume in the treatment groups (T) to the median tumor volume in the control group (T/C×100%) was used for evaluation of the antitumor efficacy.",
  "data": [
    {"compound": "COc1ccc2[nH]c3c(c2c1)CCN[C@]31CS[C@@H]2c3c(OC(C)=O)c(C)c4c(c3[C@H](COC1=O)N1[C@@H]2[C@H]2c3c(cc(C)c(OC)c3O)C[C@@H]([C@@H]1O)N2C)OCO4", "note": "[PM01183]", "values": [
      {"measurement": "% T/C on day 0", "setting": "PM01183 0.045 mg/kg", "value": 98.2, "unit": "%"},
      {"measurement": "% T/C on day 2", "setting": "PM01183 0.045 mg/kg", "value": 101.0, "unit": "%"},
      {"measurement": "% T/C on day 4", "setting": "PM01183 0.045 mg/kg", "value": 80.4, "unit": "%"},
      {"measurement": "% T/C on day 7", "setting": "PM01183 0.045 mg/kg", "value": 83.8, "unit": "%"},
      {"measurement": "% T/C on day 9", "setting": "PM01183 0.045 mg/kg", "value": 78.8, "unit": "%"},
      {"measurement": "% T/C on day 11", "setting": "PM01183 0.045 mg/kg", "value": 77.7, "unit": "%"},
      {"measurement": "% T/C on day 14", "setting": "PM01183 0.045 mg/kg", "value": 76.7, "unit": "%"},
      {"measurement": "% T/C on day 16", "setting": "PM01183 0.045 mg/kg", "value": 82.5, "unit": "%"},
      {"measurement": "% T/C on day 0", "setting": "PM01183 0.09 mg/kg", "value": 97.9, "unit": "%"},
      {"measurement": "% T/C on day 2", "setting": "PM01183 0.09 mg/kg", "value": 99.5, "unit": "%"},
      {"measurement": "% T/C on day 4", "setting": "PM01183 0.09 mg/kg", "value": 74.4, "unit": "%"},
      {"measurement": "% T/C on day 7", "setting": "PM01183 0.09 mg/kg", "value": 85.1, "unit": "%"},
      {"measurement": "% T/C on day 9", "setting": "PM01183 0.09 mg/kg", "value": 69.4, "unit": "%"},
      {"measurement": "% T/C on day 11", "setting": "PM01183 0.09 mg/kg", "value": 71.8, "unit": "%"},
      {"measurement": "% T/C on day 14", "setting": "PM01183 0.09 mg/kg", "value": 74.1, "unit": "%"},
      {"measurement": "% T/C on day 16", "setting": "PM01183 0.09 mg/kg", "value": 73.5, "unit": "%"},
      {"measurement": "% T/C on day 0", "setting": "PM01183 0.135 mg/kg", "value": 98.5, "unit": "%"},
      {"measurement": "% T/C on day 2", "setting": "PM01183 0.135 mg/kg", "value": 90.5, "unit": "%"},
      {"measurement": "% T/C on day 4", "setting": "PM01183 0.135 mg/kg", "value": 61.2, "unit": "%"},
      {"measurement": "% T/C on day 7", "setting": "PM01183 0.135 mg/kg", "value": 71.3, "unit": "%"},
      {"measurement": "% T/C on day 9", "setting": "PM01183 0.135 mg/kg", "value": 67.7, "unit": "%"},
      {"measurement": "% T/C on day 11", "setting": "PM01183 0.135 mg/kg", "value": 65.3, "unit": "%"},
      {"measurement": "% T/C on day 14", "setting": "PM01183 0.135 mg/kg", "value": 64.2, "unit": "%"},
      {"measurement": "% T/C on day 16", "setting": "PM01183 0.135 mg/kg", "value": 63.6, "unit": "%"},
      {"measurement": "% T/C on day 0", "setting": "PM01183 0.18 mg/kg", "value": 99.8, "unit": "%"},
      {"measurement": "% T/C on day 2", "setting": "PM01183 0.18 mg/kg", "value": 95.5, "unit": "%"},
      {"measurement": "% T/C on day 4", "setting": "PM01183 0.18 mg/kg", "value": 64.8, "unit": "%"},
      {"measurement": "% T/C on day 7", "setting": "PM01183 0.18 mg/kg", "value": 63.2, "unit": "%"},
      {"measurement": "% T/C on day 9", "setting": "PM01183 0.18 mg/kg", "value": 52.0, "unit": "%"},
      {"measurement": "% T/C on day 11", "setting": "PM01183 0.18 mg/kg", "value": 44.1, "unit": "%"},
      {"measurement": "% T/C on day 14", "setting": "PM01183 0.18 mg/kg", "value": 38.5, "unit": "%"},
      {"measurement": "% T/C on day 16", "setting": "PM01183 0.18 mg/kg", "value": 37.1, "unit": "%"}
    ]}
  ]
}
